Converted amounts (≈) assume the structure as drawn. Like-named read-outs stand apart in the source and are kept apart here.
Key:
[1] = tested on: HBeAg; type: cell-based, hepatitis B virus
[2] = tested on: HBsAg; type: cell-based, hepatitis B virus
[3] = tested on: MT4 cells; test: Toxicity of compounds on MT4 cells (MTT method); type: cell-based; details: 6 days
Method: MT4 cells are cultured in 96-well plates (2×10^5 cells/ml, 0.1 ml/well) and the verifying compounds are added and compared against the positive control sample AZT, and the normal cell control group at the same time. Comparisons against DMSO control group and MT4 cell control group are also performed. The culture is maintained at 37° C., 5 percent CO2 for 6 days. The cell activities are tested by the MTT method to determine TC50.

[4] = tested on: HIV-1 III B; test: Inhibition of HIV-induced MT4 cell pathological effects (CPE); type: cell-based; details: for IC50: 50 percent effective concentration, CPE in MT4 cells, 72 hours
Method: HIV-1 III B comes from the USA; MT4 cell line comes from Japan.
To determine viral toxicity, HIV are diluted 10 fold in 8 serial [Chinese version is unclear, and this is an educated guess] and MT4 cell pathological effects are then observed in the culture solution of RPMI-1640. Calculated TCID50 is 10-6. The normal cell control group and virus control group are also performed. The samples with five concentrations per group that are diluted by 2 times and 100 μl AZT are added in cell or virus cultures. All concentrations of samples are performed in three repeated wells. The experiments are maintained at 37° C., 5 percent CO2 for 72 hours. Then the cell pathological effects (CPE) are observed under an inverted microscope. IC50 and selective index SI (TC50/IC50) are calculated in Table 7.

[5] = tested on: influenza A1 virus; test: Anti-influenza virus experiment in MDCK cells; type: cell-based; details: for IC50: 72 h, MDCK cells, 3 days
[6] = tested on: cell Hep G2 2.2.15; test: Toxicity to cell Hep G2 2.2.15 (MTT method); type: cell-based, human
[7] = tested on: acute liver injury induced by thioacetamide; test: Model of acute liver injury induced by thioacetamide in mice; type: in vivo, Kunming mice; details: thioacetamide 30 mg/kg, X ± SD, n = 20; for ALT / AST: blood 24 hours after final dose
Method: The model of acute liver injury induced by thioacetamide in mice Experimental animals: Kunming mice, male or female, weighing 19-22 g, are used in the study. Animals are housed in an animal room with a natural photoperiod and room temperature (23±2° C.), and maintained with free access to standard rodent pellet food and water ad libitum. […] All mice are randomly divided to 7 groups. […] Then all groups are successively dosed three times at an interval of 3 hours, 6 hours and 9 hours after being infected, and the blood samples were obtained at 24 hours (i.e. the next day) after the final dose. The follow markers and liver weight were measured and also the pathological examination were performed (Table 2).

[8] = tested on: acute hepatic toxicity induced by carbon tetrachloride; test: Model of acute hepatic toxicity induced by carbon tetrachloride in rats; type: in vivo; details: blood 12 hours after final dose, X ± SD, n = 20
Method: 2. The Model of Acute Hepatic Toxicity Induced by Carbon Tetrachloride in Rats
Matured SD rats, male or female, weighing 250-350 g are used in the study. Animals are maintained with free access to standard rodent pellet food and water ad libitum.
All rats are randomly divided into 6 groups. All the other groups are treated with 0.5 ml/100 g of 50 percent carbon tetrachloride by hypodermic injection to induce acute hepatic toxicity model, except the control group, and are dosed one time simultaneously. Then all groups will be successively dosed at 4 hours and 8 hours, and the blood samples obtained at 12 hours after the final dose for determining ALT and AST. The animals are killed to measure their liver weight and to perform a pathological examination (Table 3).

[9] = tested on: hepatic toxicity induced by D-galactosamine; test: Model of hepatic toxicity induced by D-galactosamine in rats; type: in vivo; details: D-galactosamine 800 mg/kg i.p. (Table 4), X ± SD, n = 20
Method: 3. The Model of Hepatic Toxicity Induced by D-Galactosamine in Rats […] Animals are maintained with free access to standard rodent pellet food and water ad libitum. All rats are randomly divided into 4 groups. All groups except the control group are treated simultaneously with 800 mg/kg of 50 percent D-galactosamine by intraperitoneal injection to induce acute hepatic toxicity model. The blood samples are obtained 12 hours after the final dose for determining SGPT and TBIL. The animals are killed to measure their liver weight and to perform a pathological examination (Table 4).

[10] = tested on: liver fibrosis induced by carbon tetrachloride; test: Model of liver fibrosis induced by carbon tetrachloride in rats; type: in vivo, Wistar male rats; details: chronic carbon tetrachloride 12 weeks, treated one time a day for 8 weeks, X ± SD, n = 20
Method: 4. The Model of Liver Fibrosis Induced by Carbon Tetrachloride in Rats
Wistar male rats, weighing 100-150 g are used in the study. Animals are housed in an animal room with a 12 h: 12 h photoperiod and at 22° C. Animals are maintained with free access to standard rodent pellet food and water ad libitum
All Wistar male rats are treated with 0.3 ml/(100 g body weight) of 40 percent carbon tetrachloride (dissolved in peanut oil) by hypodermic injection twice a week for 12 weeks to induce […] hepatic fibrosis model, all in phase IV. Then all rats in hepatic fibrosis are randomly divided into the following groups: normal saline (NS) group, sample group and positive contrast group. The NS group rats are treated with 0.2 ml normal saline by intramuscular injection for 8 weeks, and simultaneously, all the other groups are treated with samples one time a day for 8 weeks. […] After that, all rats are killed, and the right lobes of the livers are fixed in neutral formaldehyde solution for histological examination.

[11] = tested on: arrhythmia induced by aconitine; test: Arrhythmia induced by aconitine in rats; type: in vivo, Wistar rats; details: for preventive effects on arrhythmia induced by aconitine (in words): intravenously injected, aconitine dosage increased, VT/VF postponed
Method: The antagonistic effects of the dehydrocavidine species compounds on arrhythmia induced by aconitine
The samples are dissolved in hot normal saline up to the needed concentration. Normal saline serves as the control solution. Propafenone serves as a positive control sample.
Wistar rats of both sexes are randomly grouped and anesthetized by urethane (1.2 g/kg), II lead electrocardiogram is recorded. The groups are administered the following drugs by vena femoralis injection: (1) the compound (5 mg/kg, if possible 2.5 mg/kg), (2) propafenone (7 mg/kg), (3) control solution (2 mg/kg). After 5 minutes, aconitine solution (5 μg/ml) was delivered intravenously at a constant speed of 0.08 ml/min. The volume of aconitine solution is recorded when VP, VT and VF occur, and the electrocardiogram is also recorded. EV50 (VF) values are calculated by regression analysis on the basis of the dosage of aconitine consumed by VF in each experiment.

[12] = tested on: central nervous system; details: in vivo; cited from earlier work
[13] = tested on: smooth muscles of the intestines; details: cited from earlier work
[14] = tested on: bacteria; details: cited from earlier work
[15] = normal mice; cited from earlier work
[16] = cited from earlier work
[17] = tested on: gram-positive bacterium; details: in vitro; cited from earlier work

SMILES | TC50 [3] [µg/mL] | IC50 [4] [µg/mL] | IC50 [5] [µM] | Toxicity to cell ([6]; concentration 0.1 μmol/ml) | Toxicity to cell ([6]; concentration 0.2 μmol/ml) | Toxicity to cell ([6]; concentration 0.4 μmol/ml) | Inhibition frequency to HBeAg (%) ([1]; concentration 0.1 μmol/ml) | Inhibition frequency to HBeAg (%) ([1]; concentration 0.2 μmol/ml) | Inhibition frequency to HBeAg (%) ([1]; concentration 0.4 μmol/ml) | Inhibition frequency to HBsAg (%) ([2]; concentration 0.1 μmol/ml) | Inhibition frequency to HBsAg (%) ([2]; concentration 0.2 μmol/ml) | Inhibition frequency to HBsAg (%) ([2]; concentration 0.4 μmol/ml) | Liver index (g liver wt./100 g body wt.) [7] | ALT [7] | AST [7] | ALT [8] | AST [8] | ALT [9] | AST [9] | Liver index (g liver wt./100 g body wt.) [9] | also measured
Nc1ccn([C@@H]2CS[C@H](CO)O2)c(=O)n1 [3TC, reference compound] |  |  |  |  |  |  |  |  |  |  |  |  |  |  |  |  |  |  |  |  | Inhibition frequency to HBeAg (%) ([1]; concentration 1.0 μmol/ml): 24.5%; Inhibition frequency to HBsAg (%) ([2]; concentration 1.0 μmol/ml): 4.8%
Cc1cn([C@H]2C[C@H](N=[N+]=[N-])[C@@H](CO)O2)c(=O)[nH]c1=O [AZT, zidouvding, reference compound] | 500 (≈ 1870 µM) | 0.1 (≈ 0.374 µM) |  |  |  |  |  |  |  |  |  |  |  |  |  |  |  |  |  |  | 
NC(=O)c1ncn([C@@H]2O[C@H](CO)[C@@H](O)[C@H]2O)n1 [Ribavirin, reference compound] |  |  | 3.2 |  |  |  |  |  |  |  |  |  |  |  |  |  |  |  |  |  | 
COc1cc2cc[n+]3cc4c5c(ccc4c(C)c3c2cc1O)OCO5 [dehydroapocavidine] | 250 | 6.25 |  | − (“no obvious toxicity” means cell livability ≧75% using MTT method) | − (“no obvious toxicity” means cell livability ≧75% using MTT method) | − (“no obvious toxicity” means cell livability ≧75% using MTT method) | 26.5 | 33.5 | 62.1 | 15.7 | 21.3 | 28.6 | 5.14 ± 0.48 g liver wt./100 g body wt. | 823.26 ± 178.42 | 241.13 ± 62.81 | 955.36 ± 327.18 | 903.52 ± 256.94 | 1027.10 ± 277.38 | 345.20 ± 68.29 | 4.47 ± 0.47 g liver wt./100 g body wt. | ALT [10]: 973.2 ± 273.5; AST [10]: 1057.1 ± 338.7; Hydroxy-prodine in Liver [10]: 0.175 ± 0.018; inhibitory effects on HIV viruses (in words) [4]: certain inhibitory effects on HIV viruses; inhibitory effects on influenza viruses (in words) [5]: markedly inhibitory effects on influenza viruses; preventive effects on arrhythmia induced by aconitine (in words) [11]: certain preventive effects on arrhythmia induced by aconitine; ED50 (10^−6 mol/Kg) ([11]; rats, vena femoralis injection, regression on aconitine dosage consumed by VF): 4.26 10^−6 mol/Kg
COc1cc2c(cc1OC)-c1c(C)c3ccc4c(c3c[n+]1CC2)OCO4 [dehydrocavidine] | >1000 |  | 7.4 | − (“no obvious toxicity” means cell livability ≧75% using MTT method) | − (“no obvious toxicity” means cell livability ≧75% using MTT method) | − (“no obvious toxicity” means cell livability ≧75% using MTT method) | 20.5 | 21.6 | 57.2 | 28.4 | 31.4 | 34.6 | 5.36 ± 0.54 g liver wt./100 g body wt. | 873.50 ± 251.82 | 237.10 ± 73.27 | 774.30 ± 217.11 | 1116.54 ± 348.27 | 846.28 ± 172.54 | 241.20 ± 65.53 | 5.10 ± 0.36 g liver wt./100 g body wt. | ALT [10]: 1113.4 ± 247.6; AST [10]: 987.3 ± 237.9; Hydroxy-prodine in Liver [10]: 0.162 ± 0.013; inhibitory effects on HIV viruses (in words) [4]: certain inhibitory effects on HIV viruses; IC50 ([4]; Human immunodeficiency virus 1, read-out: IC50): 12.5 µg/mL; inhibitory effects on influenza viruses (in words) [5]: markedly inhibitory effects on influenza viruses; ED50 ([11]; Rattus norvegicus, read-out: ED50 (10^−6 mol/Kg)): 7.33 µmol/kg; preventive effects on arrhythmia induced by aconitine (in words) [11]: certain preventive effects on arrhythmia induced by aconitine; effects on the central nervous system [12]: sedative effects on the central nervous system; effects on the smooth muscles of the intestines [13]: antispasm effects on the smooth muscles of the intestines; antibacterial effect in vitro [14]: antibacterial effect in vitro; effects on blood sugar levels [15]: no effects on the blood sugar levels in normal mice; production of glycogen in vivo [16]: effect on increasing the production of glycogen in vivo; inhibitory effect on gram-positive bacterium [17]: certain inhibitory effect on gram-positive bacterium

Source: patent US7732458B2 (priority 2004, dated 2010)
